According to ChEMBL document CHEMBL1201862, “PubChem BioAssay data set” (2004):
Calls of active or inactive are those of the source.

Legend:
[1] = target: Alkaline phosphatase, placental type (Homo sapiens, UniProt P05187); assay: human placental alkaline phosphatase inhibition – biochemical, luminescence, confirmation (AID 1512); format: functional
[2] = target: T1, Zinc finger protein mex-5 (Caenorhabditis elegans, UniProt Q9XUB2); assay: potency of MEX-5 RNA-binding blockers – biochemical, C. elegans, fluorescence polarization, dose response (AID 1960)
T1 sequence (Q9XUB2 whole entry): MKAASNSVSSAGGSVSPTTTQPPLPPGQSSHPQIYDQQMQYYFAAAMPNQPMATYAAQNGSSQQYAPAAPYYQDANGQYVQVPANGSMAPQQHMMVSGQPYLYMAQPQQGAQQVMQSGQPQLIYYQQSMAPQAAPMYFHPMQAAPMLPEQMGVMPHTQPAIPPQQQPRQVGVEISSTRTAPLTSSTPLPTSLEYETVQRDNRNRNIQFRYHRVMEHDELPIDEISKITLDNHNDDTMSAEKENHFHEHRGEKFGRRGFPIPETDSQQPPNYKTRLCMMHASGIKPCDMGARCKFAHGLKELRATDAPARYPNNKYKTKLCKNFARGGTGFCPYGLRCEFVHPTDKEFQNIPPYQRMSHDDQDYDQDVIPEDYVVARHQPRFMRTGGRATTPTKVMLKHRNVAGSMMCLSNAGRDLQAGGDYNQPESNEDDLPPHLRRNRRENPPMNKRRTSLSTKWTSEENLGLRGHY

[3] = target: T2, RNA-binding protein pos-1 (Caenorhabditis elegans, UniProt G5EF15); assay: disruptors of C. elegans POS-1 RNA interaction – biochemical, fluorescence polarization, dose response (AID 1964);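 further: purified POS-1 fused to maltose binding protein made in E. coli; potency of compounds blocking POS-1 binding to fluorescent RNA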
T2 sequence (G5EF15 whole entry): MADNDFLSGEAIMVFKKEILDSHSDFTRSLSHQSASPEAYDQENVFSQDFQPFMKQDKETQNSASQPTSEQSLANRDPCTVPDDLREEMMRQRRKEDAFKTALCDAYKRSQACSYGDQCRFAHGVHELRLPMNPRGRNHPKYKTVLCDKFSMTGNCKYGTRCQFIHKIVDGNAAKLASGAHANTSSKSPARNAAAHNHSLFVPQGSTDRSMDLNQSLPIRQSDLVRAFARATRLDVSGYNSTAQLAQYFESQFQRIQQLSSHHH

Coagulation factor XII = target: T3, Coagulation factor XII (Homo sapiens, UniProt P00748); format: functional;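 further: activated factor XIIa alpha cleaving a fluorogenic AMC peptide substrate; inhibitor potency from loss of enzyme activity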
T3 sequence (P00748 whole entry): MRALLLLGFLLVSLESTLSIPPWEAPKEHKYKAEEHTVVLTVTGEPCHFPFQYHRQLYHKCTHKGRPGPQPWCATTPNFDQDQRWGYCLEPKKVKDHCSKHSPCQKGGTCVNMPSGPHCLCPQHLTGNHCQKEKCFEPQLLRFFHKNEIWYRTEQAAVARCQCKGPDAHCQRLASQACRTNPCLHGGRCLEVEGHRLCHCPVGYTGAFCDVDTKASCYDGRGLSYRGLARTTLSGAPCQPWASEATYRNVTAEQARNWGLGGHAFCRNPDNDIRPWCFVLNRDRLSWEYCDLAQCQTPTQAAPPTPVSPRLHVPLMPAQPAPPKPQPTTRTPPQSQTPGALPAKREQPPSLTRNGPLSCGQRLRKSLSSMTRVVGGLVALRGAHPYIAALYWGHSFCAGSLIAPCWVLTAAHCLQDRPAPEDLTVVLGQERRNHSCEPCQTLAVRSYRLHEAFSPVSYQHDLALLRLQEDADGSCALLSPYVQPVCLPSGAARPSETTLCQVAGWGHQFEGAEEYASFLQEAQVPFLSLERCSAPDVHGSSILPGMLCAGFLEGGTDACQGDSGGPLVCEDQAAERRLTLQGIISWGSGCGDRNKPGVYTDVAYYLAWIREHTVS

SUMO-activating enzyme [4] = target: T4, SUMO-activating enzyme (Homo sapiens, UniProt Q9UBT2); assay: blockers of UBC9-mediated SUMO conjugation – biochemical, AlphaScreen, SUMOylation inhibitor project, confirmation (AID 2018); format: functional
SUMO-activating enzyme [5] = target: T4, SUMO-activating enzyme; assay: blockers of SAE1/SAE2–UBC9 SUMO transfer – biochemical, HTRF, uHTS, primary screen (AID 2006); format: protein-complex assay
Estrogen receptor = target: T5, Estrogen receptor (Homo sapiens, UniProt P03372);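 further: potency for inhibiting coactivator peptide recruitment to the receptor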
T5 sequence (P03372 whole entry): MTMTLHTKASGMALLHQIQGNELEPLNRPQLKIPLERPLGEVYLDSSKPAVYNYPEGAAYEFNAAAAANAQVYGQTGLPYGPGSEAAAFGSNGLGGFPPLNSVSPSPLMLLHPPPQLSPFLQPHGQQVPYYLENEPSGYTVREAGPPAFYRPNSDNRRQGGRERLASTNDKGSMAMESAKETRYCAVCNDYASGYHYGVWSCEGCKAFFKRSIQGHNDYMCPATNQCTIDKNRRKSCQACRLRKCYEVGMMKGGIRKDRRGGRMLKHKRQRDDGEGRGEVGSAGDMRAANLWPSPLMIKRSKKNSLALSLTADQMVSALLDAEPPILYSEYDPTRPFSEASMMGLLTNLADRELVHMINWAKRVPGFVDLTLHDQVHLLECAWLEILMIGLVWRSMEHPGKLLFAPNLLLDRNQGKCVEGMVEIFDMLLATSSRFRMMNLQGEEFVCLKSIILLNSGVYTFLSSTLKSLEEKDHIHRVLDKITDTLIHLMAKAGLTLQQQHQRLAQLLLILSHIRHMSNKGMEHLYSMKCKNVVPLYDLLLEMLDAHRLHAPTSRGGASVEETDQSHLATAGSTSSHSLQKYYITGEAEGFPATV

[6] = target: T6, Voltage-gated N-type calcium channel alpha-1B subunit/Amyloid beta A4 precursor protein-binding family A member 1 (Homo sapiens, UniProt Q00975+Q02410); format: protein assay
T6 sequence (Q00975 whole entry): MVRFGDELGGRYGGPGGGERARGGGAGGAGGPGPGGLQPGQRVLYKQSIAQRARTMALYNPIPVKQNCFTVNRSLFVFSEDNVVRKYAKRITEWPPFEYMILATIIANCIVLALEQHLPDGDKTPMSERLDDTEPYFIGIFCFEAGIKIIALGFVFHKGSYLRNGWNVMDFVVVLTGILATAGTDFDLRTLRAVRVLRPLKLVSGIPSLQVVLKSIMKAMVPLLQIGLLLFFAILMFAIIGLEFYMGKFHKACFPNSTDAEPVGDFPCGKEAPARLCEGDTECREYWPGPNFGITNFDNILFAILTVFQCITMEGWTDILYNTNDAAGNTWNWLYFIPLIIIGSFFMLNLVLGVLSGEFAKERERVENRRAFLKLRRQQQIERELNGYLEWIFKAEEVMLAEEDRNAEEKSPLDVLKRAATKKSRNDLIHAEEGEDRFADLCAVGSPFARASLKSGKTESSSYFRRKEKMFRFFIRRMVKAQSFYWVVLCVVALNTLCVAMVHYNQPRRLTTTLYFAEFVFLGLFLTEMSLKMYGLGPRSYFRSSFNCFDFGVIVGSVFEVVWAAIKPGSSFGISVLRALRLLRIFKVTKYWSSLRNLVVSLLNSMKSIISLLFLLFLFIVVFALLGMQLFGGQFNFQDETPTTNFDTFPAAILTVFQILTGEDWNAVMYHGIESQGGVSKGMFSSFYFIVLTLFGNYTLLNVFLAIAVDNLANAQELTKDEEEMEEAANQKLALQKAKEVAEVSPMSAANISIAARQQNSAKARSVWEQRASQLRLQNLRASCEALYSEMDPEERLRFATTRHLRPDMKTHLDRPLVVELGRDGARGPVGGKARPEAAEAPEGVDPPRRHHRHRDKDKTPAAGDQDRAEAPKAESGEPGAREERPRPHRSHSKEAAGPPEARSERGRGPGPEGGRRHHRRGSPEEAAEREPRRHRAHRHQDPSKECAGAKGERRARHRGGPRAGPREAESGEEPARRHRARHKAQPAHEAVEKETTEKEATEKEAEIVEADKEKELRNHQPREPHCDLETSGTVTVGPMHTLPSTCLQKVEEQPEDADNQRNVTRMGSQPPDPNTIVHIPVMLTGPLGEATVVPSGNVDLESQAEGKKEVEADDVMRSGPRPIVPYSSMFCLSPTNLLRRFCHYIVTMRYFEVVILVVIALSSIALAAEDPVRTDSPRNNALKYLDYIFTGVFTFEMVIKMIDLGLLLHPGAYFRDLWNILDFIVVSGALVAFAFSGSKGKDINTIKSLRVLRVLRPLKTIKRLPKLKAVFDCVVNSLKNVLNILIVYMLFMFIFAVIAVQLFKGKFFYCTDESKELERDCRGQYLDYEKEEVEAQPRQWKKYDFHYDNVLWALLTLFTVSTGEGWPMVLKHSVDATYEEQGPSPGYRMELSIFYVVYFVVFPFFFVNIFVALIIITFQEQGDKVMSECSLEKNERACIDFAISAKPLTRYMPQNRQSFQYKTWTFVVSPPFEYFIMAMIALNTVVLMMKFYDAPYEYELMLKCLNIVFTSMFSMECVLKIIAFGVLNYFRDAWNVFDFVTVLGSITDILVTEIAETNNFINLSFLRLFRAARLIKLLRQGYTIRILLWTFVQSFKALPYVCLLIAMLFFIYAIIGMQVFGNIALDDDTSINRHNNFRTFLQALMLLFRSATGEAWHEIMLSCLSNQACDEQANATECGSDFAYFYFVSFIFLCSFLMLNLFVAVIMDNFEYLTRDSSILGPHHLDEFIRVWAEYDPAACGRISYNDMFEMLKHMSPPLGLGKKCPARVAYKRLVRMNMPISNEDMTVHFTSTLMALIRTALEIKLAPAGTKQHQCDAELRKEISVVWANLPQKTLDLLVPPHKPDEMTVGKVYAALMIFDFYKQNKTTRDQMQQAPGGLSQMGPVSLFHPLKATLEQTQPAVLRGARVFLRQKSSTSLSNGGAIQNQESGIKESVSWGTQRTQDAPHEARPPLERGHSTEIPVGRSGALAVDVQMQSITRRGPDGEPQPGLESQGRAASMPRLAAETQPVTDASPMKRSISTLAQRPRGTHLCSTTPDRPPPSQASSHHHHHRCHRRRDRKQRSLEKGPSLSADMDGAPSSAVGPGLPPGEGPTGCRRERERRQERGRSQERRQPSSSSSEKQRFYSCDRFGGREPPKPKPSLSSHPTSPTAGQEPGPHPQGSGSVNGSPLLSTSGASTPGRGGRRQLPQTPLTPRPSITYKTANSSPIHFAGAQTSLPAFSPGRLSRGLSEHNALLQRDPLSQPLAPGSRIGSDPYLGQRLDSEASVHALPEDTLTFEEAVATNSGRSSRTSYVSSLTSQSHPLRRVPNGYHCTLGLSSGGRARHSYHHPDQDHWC
T6 sequence (Q02410 whole entry): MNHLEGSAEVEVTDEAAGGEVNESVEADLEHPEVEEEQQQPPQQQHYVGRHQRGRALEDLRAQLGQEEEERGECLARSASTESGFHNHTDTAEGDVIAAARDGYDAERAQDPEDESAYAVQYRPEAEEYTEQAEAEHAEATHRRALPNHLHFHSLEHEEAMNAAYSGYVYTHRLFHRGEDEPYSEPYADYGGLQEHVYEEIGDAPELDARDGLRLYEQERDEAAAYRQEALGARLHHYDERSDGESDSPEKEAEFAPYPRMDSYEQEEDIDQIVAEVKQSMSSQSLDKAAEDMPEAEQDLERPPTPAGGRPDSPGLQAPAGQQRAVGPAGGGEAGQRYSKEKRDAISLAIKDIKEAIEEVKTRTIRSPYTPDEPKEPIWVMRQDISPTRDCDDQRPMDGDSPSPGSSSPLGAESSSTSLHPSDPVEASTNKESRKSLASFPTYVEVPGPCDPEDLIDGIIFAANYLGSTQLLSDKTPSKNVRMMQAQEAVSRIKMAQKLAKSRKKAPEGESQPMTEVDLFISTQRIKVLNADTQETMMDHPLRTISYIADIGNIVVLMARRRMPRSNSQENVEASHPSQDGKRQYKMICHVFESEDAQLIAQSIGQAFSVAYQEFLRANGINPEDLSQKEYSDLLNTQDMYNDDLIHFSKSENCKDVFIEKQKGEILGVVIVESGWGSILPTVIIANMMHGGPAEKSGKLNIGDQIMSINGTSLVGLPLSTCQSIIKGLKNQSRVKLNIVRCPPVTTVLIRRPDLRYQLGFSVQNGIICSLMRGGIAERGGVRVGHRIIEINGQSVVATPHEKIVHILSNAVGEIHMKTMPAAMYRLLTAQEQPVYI

[7] = target: T6, Voltage-gated N-type calcium channel alpha-1B subunit/Amyloid beta A4 precursor protein-binding family A member 1; format: protein assay; remark: listed apart in the source
Beta-galactosidase [8] = target: T7, Beta-galactosidase (Escherichia coli, UniProt Q8VNN2); format: functional
T7 sequence (Q8VNN2 whole entry): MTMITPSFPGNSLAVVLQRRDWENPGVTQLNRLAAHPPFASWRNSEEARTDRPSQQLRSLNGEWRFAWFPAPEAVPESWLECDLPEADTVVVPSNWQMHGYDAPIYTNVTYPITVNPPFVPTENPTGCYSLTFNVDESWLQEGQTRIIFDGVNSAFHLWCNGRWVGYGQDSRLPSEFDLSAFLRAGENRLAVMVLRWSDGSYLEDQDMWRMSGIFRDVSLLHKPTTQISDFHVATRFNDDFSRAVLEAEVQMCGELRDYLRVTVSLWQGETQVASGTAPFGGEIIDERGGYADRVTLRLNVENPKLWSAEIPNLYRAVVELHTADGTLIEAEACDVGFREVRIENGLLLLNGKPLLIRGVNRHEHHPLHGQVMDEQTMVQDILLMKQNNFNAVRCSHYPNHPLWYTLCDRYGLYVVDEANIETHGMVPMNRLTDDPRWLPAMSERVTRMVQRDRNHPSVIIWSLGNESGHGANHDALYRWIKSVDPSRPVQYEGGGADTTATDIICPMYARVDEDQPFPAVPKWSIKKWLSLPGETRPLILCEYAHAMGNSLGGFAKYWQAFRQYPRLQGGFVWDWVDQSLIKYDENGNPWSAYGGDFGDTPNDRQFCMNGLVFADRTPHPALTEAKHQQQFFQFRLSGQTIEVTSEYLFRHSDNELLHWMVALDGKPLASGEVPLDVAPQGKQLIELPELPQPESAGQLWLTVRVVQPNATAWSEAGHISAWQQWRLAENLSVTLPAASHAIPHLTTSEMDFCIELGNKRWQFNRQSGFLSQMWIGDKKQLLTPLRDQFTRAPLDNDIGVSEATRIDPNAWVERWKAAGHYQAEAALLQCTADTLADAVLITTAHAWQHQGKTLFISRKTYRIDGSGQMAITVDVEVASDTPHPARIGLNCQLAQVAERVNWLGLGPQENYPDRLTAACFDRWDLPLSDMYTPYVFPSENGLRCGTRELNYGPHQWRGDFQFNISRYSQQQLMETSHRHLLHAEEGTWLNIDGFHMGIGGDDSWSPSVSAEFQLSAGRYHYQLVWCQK

[9] = target: T8, Kappa-type opioid receptor (Homo sapiens, UniProt P41145); format: functional
T8 sequence (P41145 whole entry): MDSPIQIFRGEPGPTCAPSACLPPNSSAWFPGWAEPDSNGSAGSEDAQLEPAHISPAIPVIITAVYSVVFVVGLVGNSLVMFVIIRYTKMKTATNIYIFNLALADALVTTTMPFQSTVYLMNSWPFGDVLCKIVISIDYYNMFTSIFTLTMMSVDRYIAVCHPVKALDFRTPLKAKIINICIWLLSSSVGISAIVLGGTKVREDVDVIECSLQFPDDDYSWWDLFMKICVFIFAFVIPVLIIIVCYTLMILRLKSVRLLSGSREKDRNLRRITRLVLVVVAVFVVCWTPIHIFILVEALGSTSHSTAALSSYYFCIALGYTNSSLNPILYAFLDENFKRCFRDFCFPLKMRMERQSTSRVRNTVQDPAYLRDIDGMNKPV

Beta-galactosidase [10] = target: T7, Beta-galactosidase; assay: detection-enzyme interference by beta-gal modulators – biochemical, E. coli enzyme, set 3, artefact control for CCR6 antagonist project, dose response (AID 504712); format: functional
Streptococcus = assay: GAS UMAA2166 growth inhibition – luminescence, BacTiterGlo, counter-screen for streptokinase expression inhibitor project, dose response (AID 1915); format: functional, organism-based; conditions: Streptococcus;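 further: potency for reduction of bacterial viability or growth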
[11] = system: Streptococcus sp. 'group A'; assay: Streptococcus pyogenes SK(-)GAS viability under kanamycin – luminescence, BacTiterGlo, confirmation, counter-screen for streptokinase expression inhibitor project, dose response (AID 1900); format: functional, organism-based; conditions: Streptococcus sp. 'group A'
Streptokinase A = target: T9, Streptokinase A (Streptococcus pyogenes serotype M1, UniProt P10520); assay: viability-normalized secreted streptokinase activity reduction – plasminogen activation absorbance, OD405, dose response (AID 1914); format: functional, Streptococcus pyogenes M1 GAS;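 further: secreted streptokinase activity via plasminogen activation per viability signal from cell pellet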
T9 sequence (P10520 whole entry): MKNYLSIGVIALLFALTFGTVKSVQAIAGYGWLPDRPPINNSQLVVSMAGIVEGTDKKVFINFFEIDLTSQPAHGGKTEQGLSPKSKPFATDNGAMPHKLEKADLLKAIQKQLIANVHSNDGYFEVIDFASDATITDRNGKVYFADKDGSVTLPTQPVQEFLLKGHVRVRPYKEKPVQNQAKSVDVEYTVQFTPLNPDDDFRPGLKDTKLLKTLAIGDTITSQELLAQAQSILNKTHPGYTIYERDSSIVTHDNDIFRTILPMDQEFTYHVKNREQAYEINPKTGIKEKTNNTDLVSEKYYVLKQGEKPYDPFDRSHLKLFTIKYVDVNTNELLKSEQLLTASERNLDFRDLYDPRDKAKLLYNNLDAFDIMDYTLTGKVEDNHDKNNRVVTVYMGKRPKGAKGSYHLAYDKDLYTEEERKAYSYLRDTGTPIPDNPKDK

[12] = target: T8, Kappa-type opioid receptor; format: functional; remark: listed apart in the source
Cytochrome P450 3A4 [13] = target: T10, Cytochrome P450 3A4 (Homo sapiens, UniProt P08684); conditions: Potency
Cytochrome P450 2C9 = Cytochrome P450 2C9 (Homo sapiens, UniProt P11712); conditions: Potency
Large T antigen = Large T antigen (Simian virus 40, UniProt P03070); format: functional, Betapolyomavirus macacae;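 further: Confirmatory-stage PubChem screen for compounds that inhibit SV40 T antigen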
[14] = target: DNA dC->dU-editing enzyme APOBEC-3G (Homo sapiens, UniProt Q9HC16); assay: Dose Response confirmation of small molecule APOBEC3G DNA Deaminase Inhibitors via a fluorescence-based single-stranded DNA deaminase assay. [Related pubchem assays (depositor defined):AID493012, AID493028]; format: functional
Sequence of DNA dC->dU-editing enzyme APOBEC-3G (Q9HC16 whole entry): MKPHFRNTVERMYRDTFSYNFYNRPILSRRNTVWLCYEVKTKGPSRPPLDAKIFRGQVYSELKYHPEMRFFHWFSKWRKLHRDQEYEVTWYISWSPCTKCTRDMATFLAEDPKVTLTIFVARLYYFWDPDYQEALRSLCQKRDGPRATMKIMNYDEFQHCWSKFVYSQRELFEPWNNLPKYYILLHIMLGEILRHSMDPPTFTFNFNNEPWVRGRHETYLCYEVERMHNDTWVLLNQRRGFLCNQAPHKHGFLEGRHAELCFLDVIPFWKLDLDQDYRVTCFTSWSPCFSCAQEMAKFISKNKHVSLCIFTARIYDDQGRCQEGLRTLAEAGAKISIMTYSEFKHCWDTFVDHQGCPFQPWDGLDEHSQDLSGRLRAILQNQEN

[15] = target: DNA dC->dU-editing enzyme APOBEC-3A (Homo sapiens, UniProt P31941); assay: A3A deaminase inhibition for selectivity – biochemical, dose response (AID 504722); format: functional
[16] = target: Glucose-6-phosphate 1-dehydrogenase (Homo sapiens, UniProt P11413); assay: inhibition of Homo sapiens G6PD, dose series – biochemical, fluorescence, selectivity assay for P. falciparum G6PD inhibitor project, dose response (AID 504792); format: functional
Cytochrome P450 3A4 [17] = target: T10, Cytochrome P450 3A4
Trypsin = Trypsin (Sus scrofa, UniProt P00761); assay: trypsin protease activity blockade – biochemical, quenched peptide fluorescence, cherry-pick, selectivity assay for Rce1 protease inhibitor project, dose response (AID 488789)
[18] = target: FAD-linked sulfhydryl oxidase ALR (Homo sapiens, UniProt P55789); assay: ALR-catalysed DTT oxidation blockers – biochemical, H2O2 detection, luminescence, cherry-pick, dose response (AID 493248)
Nonstructural protein 1 = Nonstructural protein 1 (Influenza A virus, UniProt Q194T2); format: functional, Influenza A virus (A/California/07/2009(H1N1))
[19] = Vero E6 cell cytotoxicity, dose response, cytotoxicity control for non-replicating M. tuberculosis project, secondary assay (AID 492998); format: functional, VeroE6; conditions: Vero C1008
[20] = THP-1 cell cytotoxicity, dose response, cytotoxicity control for non-replicating M. tuberculosis project (AID 489025); format: functional
cells = format: functional
INS1 = assay: INS-1E survival protection against cytokine death – cell-based, luminescence, retest, dose response (AID 449756); format: functional; conditions: Rattus norvegicus;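 further: cell death triggered by IL-1 beta plus TNF-alpha plus IFN-gamma mixture; protective hits raise ATP signal compared with cytokine alone wells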
[21] = microbe, parasite or virus in culture; format: functional; conditions: Mycobacterium tuberculosis
[22] = Luminescence Cell-Based Dose Retest to Confirm Inhibitors of Cancer Stem Cells. [Related pubchem assays (depositor defined):AID2717, AID2721]; format: functional, Homo sapiens; conditions: Homo sapiens

CCOCCCNC(=O)CCC(=O)NNc1nc2ccccc2c2nc(C)nn12
IC50 [1]: > 100 µM (inactive)
EC50 [2]: 1.45 µM (active)
EC50 [3]: > 300 µM (not active)

Cc1ccc(NC(=O)CCn2cccc2)cc1C
IC50 (Coagulation factor XII): > 50 µM (inactive)

CCc1ccc2nc(NC(=O)c3ccc4c(O)nc(CN5CCOCC5)nc4c3)sc2c1
IC50 (SUMO-activating enzyme [4]): 7.19 µM (active)
IC50 (SUMO-activating enzyme [5]): 3.54 µM (active)
IC50 (Estrogen receptor): 8.23 µM (active)
IC50 [6]: > 50 µM (inactive)
IC50 [7]: 6.59 µM (active)

Cc1ccn(CC(=O)O)c(=O)c1
IC50 (Coagulation factor XII): > 50 µM (inactive)

Cc1cc2nc(N3C(=O)CNC3=S)sc2cc1C
EC50 (Beta-galactosidase [8]): > 31.5 µM (inactive)
IC50 [9]: 8.55 µM (active)
IC50 (Beta-galactosidase [10]): > 66.6 µM (inactive)
EC50 (Streptococcus): 10.6 µM (active)
EC50 [11]: 3.98 µM (active)
EC50 (Streptokinase A): > 150 µM (not active)
IC50 [12]: > 32 µM

CC1CCC2C(=O)N3C(CCC(C)[C@H]3c3ccccc3Br)C(=O)N2C1c1ccccc1Br (some centres not stated)
AC50 (Cytochrome P450 3A4 [13]): 1.26 µM (inconclusive)
AC50 (Cytochrome P450 2C9): 6.31 µM (inconclusive)

Cc1cc(C)nc(SSc2nc(C)cc(C)n2)n1
IC50 (Large T antigen): 28.2 µM (active)
IC50 [14]: 5.1 µM (active)
IC50 [15]: > 100 µM (inactive)
IC50 [16]: > 80 µM (inactive)

Cc1ccc(NNS(=O)(=O)c2ccc(C)cc2)cc1
IC50 [14]: 37.9 µM (active)
AC50 (Cytochrome P450 3A4 [17]): 28.2 µM (inconclusive)
IC50 [16]: > 80 µM (inactive)

CC1CCc2c(sc(NC(=O)COC(=O)c3ccccc3NCc3ccco3)c2C#N)C1 (configuration not stated)
AC50 (Trypsin): 9.07 µM (active)

COc1cc(/C=N/n2c(S)nnc2COc2ccccc2)cc(Br)c1O
AC50 [18]: 2.65 µM (active)
IC50 [14]: 2.19 µM (active)
IC50 [15]: > 100 µM (inactive)

CCOc1ccc(C(=O)N/N=C/c2cccc3cccnc23)cc1
IC50 (Beta-galactosidase [10]): > 66.6 µM (inactive)
IC50 (Nonstructural protein 1): 11.4 µM (active)
CC50 [19]: > 20 µM (active)
CC50 [20]: 11.5 µM (active)
IC50 (cells): 2.75 µM (active)

CN(/N=C/c1cc(Br)cc(Br)c1O)c1cccc(C(F)(F)F)n1
IC50 (Beta-galactosidase [10]): > 66.6 µM (inactive)
AC50 (INS1): 10.7 µM (active)
EC50 (Streptococcus): 9.95 µM (active)
EC50 [11]: 0.58 µM (active)
CC50 [21]: 17.6 µM (active)
EC50 (Streptokinase A): > 150 µM (not active)
AC50 [22]: 5.94 µM (active)
